Measurements from patent US12048730B2, “Pharmaceutical composition for preventing or treating cancer, containing oligopeptide as active ingredient” (L-BASE CO., LTD., priority 2018, dated 2024).
“Also recorded” adds a separate entry of the source.

How the values were obtained:
Assay type in all cases: cell-based
[1] = tested on: lung cancer cell line (H1975); experiment: MTS assay, cancer cell proliferation inhibition, lung cancer cell line; conditions: H1975, 500 μM oligopeptide, 72 hours, OD 490 nm, vs untreated control (FIG. 1)
Procedure: (§1) To measure the cancer cell proliferation inhibitory effect of the oligopeptides synthesized in Example 1, an MTS (3-(4,5-dimethylthiazol-2-y)-5-(3-carboxymethoxyphenyl)-2-(4-sulfophenyl)-2H-tetrazolium, inner salt) assay for cancer cells was performed. Specifically, each of a lung cancer cell line (H1975), a breast cancer cell line (MDA-MB-231) and a blood cancer cell line (Daudi), which were cultured in 96-well microplates, was treated with 500 μM of the oligopeptides synthesized in Example 1, and incubated in a 37° C. incubator for 72 hours. Each cell culture was treated with an MTS reagent and incubated in a 37° C. incubator for 30 minutes or more, and absorbance (OD) was measured at 490 nm.

[2] = tested on: blood cancer cell line (Daudi); experiment: MTS assay, cancer cell proliferation inhibition, blood cancer cell line; conditions: 500 μM oligopeptide, 72 hours, OD 490 nm, vs untreated control (FIG. 3)
Procedure: as §1

[3] = tested on: breast cancer cell line (MDA-MB-231); experiment: MTS assay, cancer cell proliferation inhibition, breast cancer cell line; conditions: MDA-MB-231, 500 μM oligopeptide, 72 hours, OD 490 nm, vs untreated control (FIG. 2)
Procedure: as §1

Row | Sequence | cancer cell proliferation inhibitory activity [1] | cancer cell proliferation inhibitory activity [2] | cancer cell proliferation inhibitory effect [3]
1 | SICIYGGRNR (pep #7) | excellent cancer cell proliferation inhibitory effects | better cancer cell proliferation inhibitory activity than an untreated control | better cancer cell proliferation inhibitory effect than an untreated control; also recorded: excellent cancer cell proliferation inhibitory effects
2 | WPDTVRQLAL (pep #3) | – | better cancer cell proliferation inhibitory activity than an untreated control | better cancer cell proliferation inhibitory effect than an untreated control; also recorded: excellent cancer cell proliferation inhibitory effects
3 | ATWPDTVRQL (pep #1) | – | better cancer cell proliferation inhibitory activity than an untreated control | –
4 | CSKYSYKGLK (pep #4) | – | better cancer cell proliferation inhibitory activity than an untreated control | better cancer cell proliferation inhibitory effect than an untreated control
5 | TSATWPDTVR (pep #2) | – | better cancer cell proliferation inhibitory activity than an untreated control | better cancer cell proliferation inhibitory effect than an untreated control
6 | SREQRNGPGM (pep #9) | excellent cancer cell proliferation inhibitory effects | – | –
7 | AECSKYSYKG (pep #5) | – | better cancer cell proliferation inhibitory activity than an untreated control; also recorded: excellent cancer cell proliferation inhibitory activity | better cancer cell proliferation inhibitory effect than an untreated control; also recorded: excellent cancer cell proliferation inhibitory effects
8 | GMLVLTPTRE (pep #8) | excellent cancer cell proliferation inhibitory effects | better cancer cell proliferation inhibitory activity than an untreated control; also recorded: excellent cancer cell proliferation inhibitory activity | better cancer cell proliferation inhibitory effect than an untreated control
9 | QTVMTSATWP (pep #6) | excellent cancer cell proliferation inhibitory effects | better cancer cell proliferation inhibitory activity than an untreated control | –
